The record followed here is ChEMBL document CHEMBL3817730, “Design, synthesis and antimetastatic evaluation of 1-benzothiazolylphenylbenzotriazoles for photodynamic therapy in oral cancer cells” (Medchemcomm, 2016).

Series [1] in a line: Cytotoxicity against human Ca9-22 cells assessed as cell survival at 5 uM preincubated for 4 hrs followed by 1 Jcm'-2 UVA irradiation measured after 24 hrs by MTT assay relative to control. It is filed as cell-based. Particulars: read-out: Survival.
In series [2] the test system is Ca9-22. As to the kind of experiment: Anti-metastatic activity against human Ca9-22 cells assessed as inhibition of cell migration at 2 uM preincubated for 2 hrs followed by 0.5 Jcm'-2 UVA irradiation measured after 16 hrs by wound healing assay relative to control. Particulars: Ca9-22, light or radiation study. It is filed as functional.
Series [3] deals with Epidermal growth factor receptor (Homo sapiens) (UniProt P00533). As to the kind of experiment: Inhibition of phosphorylated EGFR level in human Ca9-22 cells at 2 uM preincubated for 2 hrs followed by 0.5 Jcm'-2 UVA irradiation by Western blot analysis. The series is classed as cell-based.
In series [4] the test system is Ca9-22. Description: Increase in TIMP3 expression in human Ca9-22 cells at 2 uM preincubated for 2 hrs followed by 0.5 Jcm'-2 UVA irradiation by Western blot analysis. It is filed as functional, cell-based.
The target in series [5] is T1, Epidermal growth factor receptor (Homo sapiens) (UniProt P04626+P00533+Q15303+P21860). As to the kind of experiment: Inhibition of EGFR/ERK signalling in human Ca9-22 cells assessed as reduction in MMP9 expression at 2 uM preincubated for 2 hrs followed by 0.5 Jcm'-2 UVA irradiation by Western blot analysis. The series is classed as cell-based.
The subject of series [6] is Ca9-22. Description: Antiinvasive activity against human Ca9-22 cells assessed as cell invasion at 2 uM preincubated for 2 hrs followed by 0.5 Jcm'-2 UVA irradiation measured after 22 hrs by boyden chamber assay relative to control. The series is classed as functional.
Series [7] deals with T1, Epidermal growth factor receptor (Homo sapiens). As to the kind of experiment: Inhibition of EGFR/ERK signalling in human Ca9-22 cells assessed as reduction in MMP2 expression at 2 uM preincubated for 2 hrs followed by 0.5 Jcm'-2 UVA irradiation by Western blot analysis. The series is classed as cell-based.
Series [8] relates to Ca9-22. As to the kind of experiment: Inhibition of phosphorylated ERK level in human Ca9-22 cells at 2 uM preincubated for 2 hrs followed by 0.5 Jcm'-2 UVA irradiation by Western blot analysis. The series is classed as cell-based.
Series [9] has as its system Ca9-22. As to the kind of experiment: Anti-metastatic activity against human Ca9-22 cells assessed as reduction in heparanase mRNA expression at 2 uM preincubated for 2 hrs followed by 0.5 Jcm'-2 UVA irradiation measured after 8 hrs by qRT-PCR method. The series is classed as functional, cell-based.
Series [10] has as its system Ca9-22. As to the kind of experiment: Anti-metastatic activity against human Ca9-22 cells assessed as increase in TIMP3 mRNA expression at 2 uM preincubated for 2 hrs followed by 0.5 Jcm'-2 UVA irradiation measured after 8 hrs by qRT-PCR method. The series is classed as functional, cell-based.
For series [11], the target named is T1, Epidermal growth factor receptor (Homo sapiens). Description: Inhibition of EGFR/ERK signalling in human Ca9-22 cells assessed as reduction in MMP9 mRNA expression at 2 uM preincubated for 2 hrs followed by 0.5 Jcm'-2 UVA irradiation measured after 8 hrs by qRT-PCR method. The series is classed as cell-based.
For series [12], the system named is Ca9-22. Description: Anti-metastatic activity against human Ca9-22 cells assessed as increase in syndecan-1 mRNA expression at 2 uM preincubated for 2 hrs followed by 0.5 Jcm'-2 UVA irradiation measured after 8 hrs by qRT-PCR method. The series is classed as functional, cell-based.
The target in series [13] is T1, Epidermal growth factor receptor (Homo sapiens). As to the kind of experiment: Inhibition of EGFR/ERK signalling in human Ca9-22 cells assessed as reduction in MMP2 mRNA expression at 2 uM preincubated for 2 hrs followed by 0.5 Jcm'-2 UVA irradiation measured after 8 hrs by qRT-PCR method. The series is classed as cell-based.
Series [14] can be described thus: Cytotoxicity against human Ca9-22 cells assessed as inhibition of cell survival at 2 uM preincubated for 2 hrs followed by 0.5 Jcm'-2 UVA irradiation measured after 24 hrs by MTT assay relative to control. It is filed as cell-based. The settings on record: read-out: INH.

Calls of active or inactive are those of the source. No cut-off for these calls is given here.

Sequence of Epidermal growth factor receptor (Homo sapiens) (UniProt P00533) (P00533 whole entry): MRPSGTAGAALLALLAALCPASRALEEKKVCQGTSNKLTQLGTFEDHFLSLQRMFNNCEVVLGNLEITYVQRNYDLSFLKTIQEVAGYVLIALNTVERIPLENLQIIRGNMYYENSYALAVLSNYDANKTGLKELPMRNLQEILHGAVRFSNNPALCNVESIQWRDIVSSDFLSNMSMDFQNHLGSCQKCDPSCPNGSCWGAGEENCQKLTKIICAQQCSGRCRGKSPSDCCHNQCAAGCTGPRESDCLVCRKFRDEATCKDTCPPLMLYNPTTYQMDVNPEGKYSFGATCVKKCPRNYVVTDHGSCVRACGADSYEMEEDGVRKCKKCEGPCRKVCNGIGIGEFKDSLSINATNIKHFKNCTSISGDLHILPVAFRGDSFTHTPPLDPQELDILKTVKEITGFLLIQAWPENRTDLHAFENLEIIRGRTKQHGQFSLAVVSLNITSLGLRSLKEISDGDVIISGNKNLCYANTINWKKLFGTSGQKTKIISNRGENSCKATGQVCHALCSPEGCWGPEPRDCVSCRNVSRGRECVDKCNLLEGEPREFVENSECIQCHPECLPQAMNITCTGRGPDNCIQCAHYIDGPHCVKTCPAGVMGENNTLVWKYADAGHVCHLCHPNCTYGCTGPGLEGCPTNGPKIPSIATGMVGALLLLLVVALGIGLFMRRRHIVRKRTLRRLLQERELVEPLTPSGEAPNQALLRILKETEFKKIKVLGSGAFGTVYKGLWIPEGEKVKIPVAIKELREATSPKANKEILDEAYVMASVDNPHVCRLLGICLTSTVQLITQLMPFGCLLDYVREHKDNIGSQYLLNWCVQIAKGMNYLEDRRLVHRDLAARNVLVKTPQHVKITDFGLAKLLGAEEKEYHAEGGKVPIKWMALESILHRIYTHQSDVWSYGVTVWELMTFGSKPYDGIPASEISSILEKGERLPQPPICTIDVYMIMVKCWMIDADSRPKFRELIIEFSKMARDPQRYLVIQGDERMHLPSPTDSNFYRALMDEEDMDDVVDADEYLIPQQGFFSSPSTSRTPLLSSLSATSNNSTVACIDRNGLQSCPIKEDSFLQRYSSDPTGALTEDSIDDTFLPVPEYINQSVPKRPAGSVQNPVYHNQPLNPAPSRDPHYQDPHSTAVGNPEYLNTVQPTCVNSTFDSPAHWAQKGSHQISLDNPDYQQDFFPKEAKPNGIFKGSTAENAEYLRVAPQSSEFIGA

`CCc1ccc2nc(-c3ccc(-n4nnc5cc(OC)ccc54)cc3)sc2c1`: the viability at 24 h, 5 µM in series [1] came out at 114%.

For `COc1ccc2nc(-c3ccc(-n4nnc5ccccc54)c(C)c3)sc2c1`, in [1], the viability at 24 h, 5 µM was 82.1%.

Regarding `CCc1ccc2nc(-c3ccc(-n4nnc5ccccc54)c(C)c3)sc2c1`, the inhibition at 2 µM with Ca9-22 [2] was 70.1%. For the same molecule, the inhibition entry (in [3]; in [5]; in series [7]; with Ca9-22 [8]) was “Active” in each case. In addition, the outcome with Ca9-22 [4] was Active. Also, in series [1], the viability at 24 h, 5 µM is 50.2%. Also, in the series with Ca9-22 [6], the Activity was 47%.

For the molecule `COc1ccc2c(c1)nnn2-c1ccc(-c2nc3ccc(OC)cc3s2)cc1`, the inhibition at 2 µM in the series on Ca9-22 [2] amounted to 51.7%. Moreover, in series [1], the viability at 24 h, 5 µM is 81.1%. The Activity in the series on Ca9-22 [6] is 108.6%.

Consider `CCc1ccc2nc(-c3ccc(-n4nnc5ccccc54)cc3)sc2c1`, for which the viability at 24 h, 5 µM in series [1] amounted to 109%.

As to `Cc1cc(-c2nc3ccccc3s2)ccc1-n1nnc2ccccc21`, the inhibition at 2 µM in the series on Ca9-22 [2] turned out to be 45.8%. For the same molecule, the inhibition entry (in series [3]; in [5]; in series [7]; in the series on Ca9-22 [8]) was “Active” in each case. Besides, the result in the series with Ca9-22 [4] was Active. Also, the viability at 24 h, 5 µM in series [1] is 48.6%. The Activity with Ca9-22 [6] was determined as 47.6%.

For the molecule `COc1ccc2c(c1)nnn2-c1ccc(-c2nc3ccc(C(F)(F)F)cc3s2)cc1C`, the viability at 24 h, 5 µM in [1] amounted to 113%.

Regarding `c1ccc2sc(-c3ccc(-n4nnc5ccccc54)cc3)nc2c1`, the viability at 24 h, 5 µM in series [1] was 95.5%.

As to `CCc1ccc2nc(-c3ccc(-n4nnc5cc(OC)ccc54)c(C)c3)sc2c1`, the inhibition at 2 µM with Ca9-22 [2] came out at 31.1%. Also, the viability at 24 h, 5 µM in series [1] was found to be 73.1%. Further, the Activity in the series on Ca9-22 [6] is 70%.

`COc1ccc2c(c1)nnn2-c1ccc(-c2nc3ccccc3s2)cc1C`: the inhibition at 2 µM in the series on Ca9-22 [2] turned out to be 18.5%. Moreover, in series [1], the viability at 24 h, 5 µM turned out to be 79.6%. In addition, in the series on Ca9-22 [6], the Activity is listed as 75.9%.

For `COc1ccc2c(c1)nnn2-c1ccc(-c2nc3ccccc3s2)cc1`, the viability at 24 h, 5 µM in series [1] was found to be 104%.

As for `COc1ccc2c(c1)nnn2-c1ccc(-c2nc3ccc(OC)cc3s2)cc1C`, in series [1], the viability at 24 h, 5 µM was 63.3%.

Regarding `FC(F)(F)c1ccc2nc(-c3ccc(-n4nnc5ccccc54)cc3)sc2c1`, in series [1], the viability at 24 h, 5 µM came to 91.8%.

Consider `COc1ccc2c(c1)nnn2-c1ccc(-c2nc3ccc(C(F)(F)F)cc3s2)cc1`, for which, in series [1], the viability at 24 h, 5 µM worked out at 105%.

As to `Cc1cc(-c2nc3ccc(C(F)(F)F)cc3s2)ccc1-n1nnc2ccccc21`, in series [1], the viability at 24 h, 5 µM stood at 89.4%.

For `COc1ccc2nc(-c3ccc(-n4nnc5ccccc54)cc3)sc2c1`, the outcome with Ca9-22 [9], in the series with Ca9-22 [10], in the series on Ca9-22 [12] and with Ca9-22 [4] was Active. In the series on Ca9-22 [2], the inhibition at 2 µM turned out to be 68.7%. Besides, the inhibition entry (in series [11]; in [3]; in [13]; in series [5]; in [7]; with Ca9-22 [8]) was “Active” throughout. In addition, the viability at 24 h, 5 µM in [1] was 44.1%. For the same molecule, the Activity in the series on Ca9-22 [6] stood at 38.9%. In addition, the cytotoxicity at 24 h, 2 µM in [14] came out at 20%.
